Source: ChEMBL document CHEMBL5518240 (J Med Chem, 2024)

Key:
[1] = target: T1, Protein cereblon/CREB-binding protein (Homo sapiens, UniProt Q92793+Q96SW2); experiment: PROTAC activity at CBP/CRBN in human VCaP cells assessed as protein degradation incubated for 4 hrs by Western blot analysis; assay type: cell-based
[2] = target: T1, Protein cereblon/CREB-binding protein; experiment: PROTAC activity at CBP/CRBN in human VCaP cells assessed as maximal protein degradation at 1 uM incubated for 4 hrs by Western blot analysis relative to control; assay type: cell-based
[3] = target: T1, Protein cereblon/CREB-binding protein; experiment: PROTAC activity at CBP/CRBN in AR positive human VCaP cells assessed as maximal protein degradation at 111.1 nM incubated for 4 hrs by Western blot analysis relative to control; assay type: cell-based
[4] = target: T1, Protein cereblon/CREB-binding protein; experiment: PROTAC activity at CBP/CRBN in AR positive human VCaP cells assessed as maximal protein degradation at 1000 nM incubated for 4 hrs by Western blot analysis relative to control; assay type: cell-based
[5] = target: T2, Protein cereblon/Histone acetyltransferase p300 (Homo sapiens, UniProt Q09472+Q96SW2); experiment: PROTAC activity at p300/CRBN in AR positive human VCaP cells assessed as maximal protein degradation at 0.46 nM incubated for 4 hrs by Western blot analysis relative to control; assay type: cell-based
[6] = target: T2, Protein cereblon/Histone acetyltransferase p300; experiment: PROTAC activity at p300/CRBN in AR positive human VCaP cells assessed as maximal protein degradation at 1.4 nM incubated for 4 hrs by Western blot analysis relative to control; assay type: cell-based
[7] = target: T2, Protein cereblon/Histone acetyltransferase p300; experiment: PROTAC activity at p300/CRBN in AR positive human VCaP cells assessed as maximal protein degradation at 12.3 nM incubated for 4 hrs by Western blot analysis relative to control; assay type: cell-based
[8] = Volume of distribution at steady state in male ICR mouse at 1 mg/kg, iv measured upto 24 hrs by LC-MS/MS analysis; assay type: ADME, organism-based; conditions: in vivo, read-out: Vdss
[9] = Oral bioavailability in male ICR mouse at 3 mg/kg measured upto 24 hrs by LC-MS/MS analysis; assay type: ADME, organism-based; conditions: in vivo
[10] = Apparent permeability coefficient across basolateral to apical side in human Caco-2 cells at 10 uM incubated for 120 mins by LC-MS/MS analysis; assay type: ADME, cell-based; conditions: caco-2, 2 h
[11] = Efflux ratio of apparent permeability coefficient across basolateral to apical side over apical to basolateral side in human Caco-2 cells at 10 uM incubated for 120 mins by LC-MS/MS analysis; assay type: ADME, cell-based; conditions: caco-2, 2 h
[12] = target: T1, Protein cereblon/CREB-binding protein; experiment: PROTAC activity at CBP/CRBN in human 22Rv1 cells assessed as protein degradation incubated for 4 hrs by Western blot analysis; assay type: cell-based
CWR22R [13] = experiment: Potency index, ratio of GNE-049 IC50 to test compound IC50 for antiproliferative activity against AR positive human 22Rv1 cells assessed inhibition of cell growth measured after 4 days by CellTiter-Glo Luminescent cell viability assay; assay type: functional; conditions: time 4 day
CWR22R [14] = experiment: Potency index, ratio of ARV-110 IC50 to test compound IC50 for antiproliferative activity against AR positive human 22Rv1 cells assessed inhibition of cell growth measured after 4 days by CellTiter-Glo Luminescent cell viability assay; assay type: functional; conditions: time 4 day
LNCaP [15] = experiment: Reduction in AR gene expression in AR positive human LNCaP cells assessed as reduction in mRNA level measured after 6 hrs by qRT-PCT analysis relative to control; assay type: functional, cell-based; conditions: dose 0.1-1000 nM
CWR22R [16] = experiment: Reduction in AR gene expression in AR positive human 22Rv1 cells assessed as reduction in mRNA level measured after 6 hrs by qRT-PCT analysis relative to control; assay type: functional, cell-based; conditions: dose 0.1-1000 nM
CWR22R [17] = experiment: Reduction in KLK3 gene expression in AR positive human 22Rv1 cells assessed as reduction in mRNA level measured after 6 hrs by qRT-PCT analysis relative to control; assay type: functional, cell-based; conditions: dose 0.1-1000 nM
LNCaP [18] = experiment: Reduction in c-Myc gene expression in AR positive human LNCaP cells assessed as reduction in mRNA level measured after 6 hrs by qRT-PCT analysis relative to control; assay type: functional, cell-based; conditions: dose 0.1-1000 nM
[19] = Reduction in KLK3 gene expression in AR positive human VCaP cells assessed as reduction in mRNA level at 1 nM measured after 6 hrs by qRT-PCT analysis relative to control; assay type: functional
[20] = Reduction in AR gene expression in AR positive human VCaP cells assessed as reduction in mRNA level at 1 nM measured after 6 hrs by qRT-PCT analysis relative to control; assay type: functional
[21] = Reduction in KLK3 gene expression in AR positive human 22Rv1 cells assessed as reduction in mRNA level at 10 nM measured after 6 hrs by qRT-PCT analysis relative to control; assay type: functional, CWR22R
[22] = Reduction in c-Myc gene expression in AR positive human 22Rv1 cells assessed as reduction in mRNA level at 10 nM measured after 6 hrs by qRT-PCT analysis relative to control; assay type: functional, CWR22R
[23] = target: T1, Protein cereblon/CREB-binding protein; experiment: In vivo PROTAC activity at CBP/CRBN in human VCaP cells xenografted in SCID mouse assessed as reduction in CBP protein at 1 mg/kg, po measured after 24 hrs; assay type: functional, organism-based; design: scale not given: the % may be the effect or the level left
[24] = target: T1, Protein cereblon/CREB-binding protein; experiment: In vivo PROTAC activity at CBP/CRBN in human VCaP cells xenografted in SCID mouse assessed as reduction in CBP protein at 3 mg/kg, po measured after 3 hrs; assay type: functional, organism-based; design: scale not given: the % may be the effect or the level left
[25] = target: T1, Protein cereblon/CREB-binding protein; experiment: In vivo PROTAC activity at p300/CRBN in human VCaP cells xenografted in CB17 SCID mouse assessed as reduction in CBP protein at 3 mg/kg, po measured after 3 hrs; assay type: functional, organism-based; design: scale not given: the % may be the effect or the level left
[26] = target: T1, Protein cereblon/CREB-binding protein; experiment: In vivo PROTAC activity at p300/CRBN in human VCaP cells xenografted in CB17 SCID mouse assessed as reduction in CBP protein at 1 mg/kg, po measured after 24 hrs; assay type: functional, organism-based; design: scale not given: the % may be the effect or the level left
[27] = Plasma concentration in CB17 SCID mouse xenografted with human VCaP cells at 1 mg/kg, po measured after 3 hrs by LC-MS/MS analysis; assay type: ADME, organism-based
[28] = Plasma concentration in CB17 SCID mouse xenografted with human VCaP cells at 1 mg/kg, po measured after 24 hrs by LC-MS/MS analysis; assay type: ADME, organism-based
[29] = Plasma concentration in CB17 SCID mouse xenografted with human VCaP cells at 3 mg/kg, po measured after 3 hrs by LC-MS/MS analysis; assay type: ADME, organism-based
[30] = Plasma concentration in CB17 SCID mouse xenografted with human VCaP cells at 3 mg/kg, po measured after 24 hrs by LC-MS/MS analysis; assay type: ADME, organism-based
[31] = Drug exposure in CB17 SCID mouse xenografted with human VCaP cells assessed compound concentration in tumor at 1 mg/kg, po measured after 3 hrs by LC-MS/MS analysis; assay type: ADME, organism-based, Neoplasm; conditions: read-out: Drug uptake
VCaP = experiment: Antitumor activity against human VCaP cells xenografted in CB17 SCID mouse model assessed as tumor growth inhibition at 0.3 mg/kg, po qd scheduled 5 days in a week measured on day 63; assay type: functional; conditions: 1512 h, time 63 day, read-out: TGI
[32] = Toxicity in CB17 SCID mouse xenografted with human VCaP cells assessed as signs of toxicity at 0.3 to 1 mg/kg, po qd scheduled 5 days in a week measured on day 63; assay type: organism-based; conditions: in vivo, 120 h, dose 0.3-1 mg/kg, time 5 day

T2 sequence (Q09472 2-2414 limits assumed): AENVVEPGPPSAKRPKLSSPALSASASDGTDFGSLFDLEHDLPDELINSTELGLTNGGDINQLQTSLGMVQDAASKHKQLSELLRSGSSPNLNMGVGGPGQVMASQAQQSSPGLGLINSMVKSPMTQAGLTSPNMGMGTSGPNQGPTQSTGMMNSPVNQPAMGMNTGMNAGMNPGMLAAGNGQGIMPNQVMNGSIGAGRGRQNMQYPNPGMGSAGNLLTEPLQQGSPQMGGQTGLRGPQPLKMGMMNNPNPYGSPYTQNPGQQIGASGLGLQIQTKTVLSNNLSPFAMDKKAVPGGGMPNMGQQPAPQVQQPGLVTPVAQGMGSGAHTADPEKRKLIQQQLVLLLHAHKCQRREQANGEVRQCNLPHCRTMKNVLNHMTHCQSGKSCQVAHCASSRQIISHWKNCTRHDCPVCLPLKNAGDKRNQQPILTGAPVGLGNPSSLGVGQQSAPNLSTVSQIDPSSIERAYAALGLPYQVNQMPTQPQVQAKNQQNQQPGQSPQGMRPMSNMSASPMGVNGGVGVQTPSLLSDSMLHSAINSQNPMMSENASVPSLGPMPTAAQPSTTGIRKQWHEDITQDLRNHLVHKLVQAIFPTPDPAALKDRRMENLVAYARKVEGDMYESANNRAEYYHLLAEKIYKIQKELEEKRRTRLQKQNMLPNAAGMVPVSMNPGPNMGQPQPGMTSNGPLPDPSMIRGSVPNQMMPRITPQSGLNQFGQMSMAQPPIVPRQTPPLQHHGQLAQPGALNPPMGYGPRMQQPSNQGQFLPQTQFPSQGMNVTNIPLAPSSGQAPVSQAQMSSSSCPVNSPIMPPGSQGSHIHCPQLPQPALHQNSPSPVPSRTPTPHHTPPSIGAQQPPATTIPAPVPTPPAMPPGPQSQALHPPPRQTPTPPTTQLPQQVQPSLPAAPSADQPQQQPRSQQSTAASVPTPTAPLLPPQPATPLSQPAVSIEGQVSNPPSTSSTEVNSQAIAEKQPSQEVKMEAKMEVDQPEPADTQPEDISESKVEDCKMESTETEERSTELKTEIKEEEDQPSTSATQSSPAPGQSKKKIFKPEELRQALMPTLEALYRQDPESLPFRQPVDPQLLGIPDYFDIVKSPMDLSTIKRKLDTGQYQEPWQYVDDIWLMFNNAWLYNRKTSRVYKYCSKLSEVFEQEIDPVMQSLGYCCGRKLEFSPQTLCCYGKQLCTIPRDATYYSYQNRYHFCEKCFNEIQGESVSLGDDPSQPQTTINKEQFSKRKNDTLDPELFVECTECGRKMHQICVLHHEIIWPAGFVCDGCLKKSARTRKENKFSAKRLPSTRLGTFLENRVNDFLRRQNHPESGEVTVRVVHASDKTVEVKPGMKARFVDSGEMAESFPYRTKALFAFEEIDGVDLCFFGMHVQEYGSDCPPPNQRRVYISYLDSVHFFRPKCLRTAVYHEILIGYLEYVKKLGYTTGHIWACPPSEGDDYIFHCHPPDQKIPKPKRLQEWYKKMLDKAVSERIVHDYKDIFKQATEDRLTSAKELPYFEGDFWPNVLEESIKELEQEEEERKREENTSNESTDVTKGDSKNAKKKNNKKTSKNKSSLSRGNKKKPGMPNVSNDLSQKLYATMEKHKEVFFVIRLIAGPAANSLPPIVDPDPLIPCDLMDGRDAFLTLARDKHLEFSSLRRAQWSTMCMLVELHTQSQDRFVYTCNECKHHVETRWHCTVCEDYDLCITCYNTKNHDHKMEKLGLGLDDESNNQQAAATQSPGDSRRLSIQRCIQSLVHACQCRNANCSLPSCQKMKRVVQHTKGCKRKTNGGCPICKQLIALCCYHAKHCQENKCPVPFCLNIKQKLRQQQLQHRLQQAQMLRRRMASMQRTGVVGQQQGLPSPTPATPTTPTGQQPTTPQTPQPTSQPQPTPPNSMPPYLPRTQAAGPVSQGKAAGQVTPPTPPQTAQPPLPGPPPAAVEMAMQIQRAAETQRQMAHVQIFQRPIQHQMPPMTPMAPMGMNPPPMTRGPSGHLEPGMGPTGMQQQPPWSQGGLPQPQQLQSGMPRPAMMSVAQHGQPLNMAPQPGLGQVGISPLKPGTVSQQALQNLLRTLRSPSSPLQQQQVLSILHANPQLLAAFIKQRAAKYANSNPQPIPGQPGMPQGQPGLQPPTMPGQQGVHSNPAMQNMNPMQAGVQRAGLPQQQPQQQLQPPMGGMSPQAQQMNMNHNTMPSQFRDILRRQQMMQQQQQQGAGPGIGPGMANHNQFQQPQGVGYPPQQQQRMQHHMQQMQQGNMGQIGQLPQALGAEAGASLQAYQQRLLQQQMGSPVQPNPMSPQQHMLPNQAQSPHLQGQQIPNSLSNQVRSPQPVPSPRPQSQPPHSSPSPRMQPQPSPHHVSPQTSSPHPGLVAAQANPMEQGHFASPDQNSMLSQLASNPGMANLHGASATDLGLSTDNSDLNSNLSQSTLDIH
T2 sequence (Q96SW2 whole entry partner): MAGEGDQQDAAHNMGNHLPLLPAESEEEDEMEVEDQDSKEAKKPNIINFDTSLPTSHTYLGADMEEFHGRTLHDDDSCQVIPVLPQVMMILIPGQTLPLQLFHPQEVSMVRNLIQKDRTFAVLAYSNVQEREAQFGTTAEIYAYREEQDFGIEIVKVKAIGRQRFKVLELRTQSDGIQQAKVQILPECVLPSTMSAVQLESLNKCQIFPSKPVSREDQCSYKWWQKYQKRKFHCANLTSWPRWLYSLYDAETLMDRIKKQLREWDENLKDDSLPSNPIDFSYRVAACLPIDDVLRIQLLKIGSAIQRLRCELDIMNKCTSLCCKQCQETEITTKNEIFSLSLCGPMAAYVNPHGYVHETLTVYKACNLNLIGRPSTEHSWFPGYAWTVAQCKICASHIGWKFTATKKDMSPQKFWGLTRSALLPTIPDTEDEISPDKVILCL

DC50 [1]: 300 pM
Emax [2]: > 95%
Activity [3]: 94%
Activity [4]: 51%
Activity [5]: 80%
Activity [6]: 97%
Activity [7]: 100%
Vd [8]: 0.4 L/kg
bioavailability [9]: 50%
Papp [10]: 2.3 10^-6 cm/s
Ratio [11]: 1.2
DC50 [12]: 200 pM
Activity [23]: > 95%
Activity [24]: > 95%
Activity [25]: > 95%
Activity [26]: > 95%
concentration at 3 h [27]: 95 ng/mL
concentration at 24 h [28]: 16 ng/mL
concentration at 3 h [29]: 355 ng/mL
concentration at 24 h [30]: 21 ng/mL
concentration at 3 h [31]: 30 ng/mL
Compound: CC(=O)N1CCc2c(c(N3CCCc4cc(-c5cnn(C)c5)c(C(F)F)cc43)nn2[C@H]2CC[C@H](CN3CCN(c4ccc5c(c4)C(=O)N(C4CCC(=O)NC4=O)C5=O)CC3)CC2)C1 (stereo partly drawn)
Ratio IC50 (CWR22R [13]): 100
Ratio IC50 (CWR22R [14]): >50
inhibition (LNCaP [15]): Dose-Dependent Effect
inhibition (CWR22R [16]): Dose-Dependent Effect
inhibition (CWR22R [17]): Dose-Dependent Effect
inhibition (LNCaP [18]): Dose-Dependent Effect
inhibition at 0.001 µM [19]: 57%
inhibition at 0.001 µM [20]: 77%
inhibition at 0.01 µM [21]: 75%
inhibition at 0.01 µM [22]: > 95%
inhibition in vivo at 0.3 mg/kg (VCaP): 73%
Activity [32]: Non-Toxic
